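Cells were grown in 96-well plates and exposed to each compound for 48 hours at five concentrations; endpoints were interpolated linearly between bracketing concentrations, or set to the highest concentration if not reached. At the GI50, growth is halved.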 Activity calls are given as the source filed them. Rule as the data show it: active = GI50 up to about 1.1 µM and inactive = higher.
Legend:
Experiment in all cases: NCI-60 cell line screen, 48 h
[1] = system: NCI-H23
[2] = system: OVCAR-3
[3] = system: MDA-MB-435
[4] = system: MDA-N
[5] = system: Malme-3M
[6] = system: SR
[7] = system: SN12C
[8] = system: UACC-62
[9] = system: MDA-MB-231
[10] = system: LOX IMVI
[11] = system: SK-MEL-5
[12] = system: NCI-H226
[13] = system: 786-0
[14] = system: SW-620
[15] = system: NCI-H460
[16] = system: NCI/ADR-RES
[17] = system: ACHN
[18] = system: HCT-116
[19] = system: SF-268
[20] = system: CAKI-1

Measured: GI50

CCOC(=O)c1c2c(n(C)c1-c1ccccc1)C(=O)C(C)=CC2=O
inactive: [1] 11.6 µM | [2] 2.86 µM | [3] 1.91 µM | [4] 2 µM | [5] 9.04 µM | [6] 1.91 µM | [7] 7.69 µM | [8] 10.9 µM | [9] 2.08 µM | [10] 3.48 µM | [11] 9.62 µM | [12] 11 µM | [13] 15.2 µM | [14] 4.06 µM | [15] 20.8 µM | [16] 7.83 µM | [17] 7.28 µM | [18] 3.6 µM | [19] 8.11 µM | [20] 13.5 µM

CC(=O)O[C@H]1CC[C@@]2(C)C(=CC[C@H]3[C@@H]4CC[C@H](c5cc(C(F)(F)F)n(C(C)=O)n5)[C@@]4(C)CC[C@@H]32)C1
inactive: [1] 6.05 µM | [2] 5.77 µM | [3] 9.27 µM | [4] 11.3 µM | [5] > 35 µM | [6] 3.98 µM | [7] 7.57 µM | [8] 12 µM | [9] 4.98 µM | [10] 7.4 µM | [11] 3.45 µM | [12] 3.24 µM | [13] 5.38 µM | [14] 12.9 µM | [15] 2.63 µM | [16] 4.83 µM | [17] 7.8 µM | [18] 3.88 µM | [19] 24.8 µM | [20] 12 µM

O=C1C2CC=CCC2C(=O)N1n1c(Cc2ccccc2)n[nH]c1=O (stereo not given)
inactive: [1] > 100 µM | [2] > 100 µM | [3] > 100 µM | [4] > 100 µM | [5] > 100 µM | [6] > 100 µM | [7] > 100 µM | [8] > 100 µM | [9] > 100 µM | [10] > 100 µM | [11] > 100 µM | [12] > 100 µM | [13] > 100 µM | [14] > 100 µM | [15] > 100 µM | [16] > 100 µM | [17] > 100 µM | [18] > 100 µM | [19] > 100 µM | [20] > 100 µM

CC1OC2OC3C(OCC(O)C3O)OC(=O)[C@]34CCC(C)(C)CC3C3=CCC5[C@@]6(C)C[C@H](O)[C@H](OC7OC(CO)C(O)C(O)C7OC7OCC(OC(=O)CC(C)(O)CC(=O)OC1C(OC1OC(CO)C(O)C(O)C1O)C2O)C(O)C7O)[C@@](C)(CO)C6CC[C@@]5(C)[C@]3(C)CC4 (stereo not given in full)
inactive: [1] 4.33 µM | [2] 9.77 µM | [3] 2.45 µM | [4] 2.44 µM | [5] 7.87 µM | [6] 7 µM | [7] 12.2 µM | [8] 9.73 µM | [9] 10.9 µM | [10] 10.6 µM | [11] 11.6 µM | [12] 17.2 µM | [13] 4.83 µM | [14] 9.35 µM | [15] 12 µM | [16] 8.32 µM | [17] 8.3 µM | [18] 7.11 µM | [19] 10.8 µM | [20] 6.41 µM

CC(O)CC(O)(C(F)(F)F)C(F)(F)F (stereo not given)
inactive: [1] > 10 µM | [2] > 10 µM | [3] > 10 µM | [4] > 10 µM | [5] > 10 µM | [6] > 10 µM | [7] > 10 µM | [8] > 10 µM | [9] > 10 µM | [10] > 10 µM | [11] > 10 µM | [12] > 10 µM | [13] > 10 µM | [14] > 10 µM | [15] > 10 µM | [16] > 10 µM | [17] > 10 µM | [18] > 10 µM | [19] > 10 µM | [20] > 10 µM

From ChEMBL document CHEMBL1201862, “PubChem BioAssay data set” (2004)
